Structures are written as SMILES. Structures can show the parent of a compound that is named as a salt.

The test has as its system HCT 116 cells. As to the kind of experiment: Viability assay in HCT 116 cells (CellTiter-Glo Luminescent Cell Viability Assay). It counts as cell-based. As to conditions: HCT 116 human colon carcinoma cells, 5 days (120 h) incubation, 10 concentrations 30 μM to 0.0015 μM, ATP luminescence. As to the method: Viability Assay in HCT 116 Cells
A viability assay was performed using the CellTiter-Glo® Luminescent Cell Viability Assay (see Promega Corporation's Technical Bulletin No. 288, pp. 1-11 [revised February 2004] which is hereby incorporated by reference in its entirety). This assay is a homogeneous method of determining the number of viable cells in culture based on quantitation of the ATP present, an indicator of metabolically active cells. The assay is designed for use with multiwell formats, making it ideal for automated high-throughput screening (HTS), cell proliferation and cytotoxicity assays. The homogeneous assay procedure involves adding a single reagent (containing luciferase, luciferan substrate, and buffer) directly to cells cultured in serum-supplemented medium. Cell washing, removal of medium and multiple pipetting steps are not required. The system detects as few as 15 cells/well in a 384-well format in 10 minutes after adding reagent and mixing.
The homogeneous “add-mix-measure” format results in cell lysis and generation of a luminescent signal proportional to the amount of ATP present. The amount of ATP is directly proportional to the number of cells present in culture. The above-referenced assay generates a “glow-type” luminescent signal, produced by the luciferase reaction, which has a half-life generally greater than five hours, depending on cell type and medium used. The extended half-life eliminates the need to use reagent injectors and provides flexibility for continuous or batch mode processing of multiple plates. The unique homogeneous format avoids errors that may be introduced by other ATP measurement methods that require multiple steps.
HCT 116 cells (human colon carcinoma, ATCC-No. CCl-247) were cultivated in RPMI 1640 medium with GlutaMAX™ I (cell culture media that contains L-Alanyl-L-Glutamine [a stabilized form/source of L-Glutamine] from Invitrogen, Cat-No. 61870-010), 5% Fetal Calf Serum (FCS, Sigma Cat-No. F4135 (FBS)); 100 Units/ml penicillin/100 μg/ml streptomycin (=Pen/Strep from Invitrogen Cat. No. 15140). For the assay the cells were seeded in 384 well plates, 1000 cells per well, in the same medium. The next day the test compounds were added in various concentrations ranging from 30 μM to 0.0015 μM (10 concentrations, 1:3 diluted). After 5 days the viability assay was performed according to the instructions of the manufacturer. In brief: the cell-plate was equilibrated to room temperature for approximately 30 minutes and then the reagent (containing luciferase, luciferan substrate, and buffer) was added. The contents were carefully mixed for 15 minutes to induce cell lysis. After 45 minutes the luminescent signal was measured in Victor 2, (scanning multiwell spectrophotometer, Wallac).
1st. Day: • Medium: RPMI 1640 with GlutaMAX™ I (Invitrogen, Cat-No. 61870), 5% FCS (Sigma Cat.-No. F4135), Pen/Strep (Invitrogen, Cat No. 15140). • HCT116 (ATCC-No. CCl-247): 1000 cells in 60 μl per well of 384 well plate (Greiner 781098, μClear-plate white) • After seeding incubate plates 24 h at 37° C., 5% CO2
2nd. Day: Induction (Treatment with Compounds, 10 Concentrations):
In order to achieve a final concentration of 30 μM as highest concentration 3.5 μl of 10 mM compound stock solution were added directly to 163 μl media. Then step e) of the dilution procedure described below, was followed.
In general terms: In ATP-based viability assays light output follows the ATP content of the culture.
Broadly, the IC50 is the midpoint of a concentration-inhibition curve. The low end stands for greater potency, the high end for weaker potency. Compound `O=C(NS(=O)(=O)c1ccc(N2CCOCC2)nc1)c1ccc(Cl)cc1Cl` [Example 1-1, 6-morpholin-4-yl-pyridine-3-sulfonic acid 2,4-dichloro-benzoylamide; sodium salt] came in with an IC50 of 1 to 16 µM.
For the compound `Cc1cc(Cl)ccc1C(=O)NS(=O)(=O)c1ccc(N2CCOCC2)nc1` [Example 1-2, 6-Morpholin-4-yl-pyridine-3-sulfonic acid 4-chloro-2-methyl-benzoylamide; sodium salt], the half-inhibitory concentration (IC50) is 5.32 µM.
The figure for `Cc1cc(Br)ccc1C(=O)NS(=O)(=O)c1ccc(N2CCOCC2)nc1` [Example 1-3, 6-Morpholin-4-yl-pyridine-3-sulfonic acid 4-bromo-2-methyl-benzoylamide; sodium salt] is 1 to 16 µM; for `Cc1ccc(C(=O)NS(=O)(=O)c2ccc(N3CCOCC3)nc2)c(Br)c1` [Example 1-4, 6-Morpholin-4-yl-pyridine-3-sulfonic acid 2-bromo-4-methyl-benzoylamide; sodium salt] it is 1 to 16 µM; for `O=C(NS(=O)(=O)c1cnc(Cl)c(Br)c1)c1ccc(Br)cc1Cl` [Example 1-7, 5-Bromo-6-chloro-pyridine-3-sulfonic acid 4-bromo-2-chloro-benzoylamide; sodium salt] it is 8.48 µM.
`O=C(NS(=O)(=O)c1cnc(Cl)c(Br)c1)c1ccc(Cl)cc1Br` [Example 1-8, 5-Bromo-6-chloro-pyridine-3-sulfonic acid 2-bromo-4-chloro-benzoylamide; sodium salt]: the IC50 fell in the range of 1 to 16 µM.
To `O=C(NS(=O)(=O)c1ccc(N2CCOCC2)nc1)c1ccc(F)cc1Cl` [Example 1-10, 6-Morpholin-4-yl-pyridine-3-sulfonic acid 2-chloro-4-fluoro-benzoylamide; sodium salt] belongs 1 to 16 µM; to `O=C(NS(=O)(=O)c1cnc(Cl)c(Br)c1)c1ccc(Cl)cc1Cl` [Example 1-13, 5-Bromo-6-chloro-pyridine-3-sulfonic acid 2,4-dichloro-benzoylamide; sodium salt], 1 to 16 µM.
The compound `O=C(NS(=O)(=O)c1ccc(Oc2ccccc2)nc1)c1ccc(C(F)(F)F)cc1F` [Example 1-15, 6-Phenoxy-pyridine-3-sulfonic acid 2-fluoro-4-trifluoromethyl-benzoylamide; sodium salt] yielded an IC50 of 1 to 16 µM.
Turning to `O=C(NS(=O)(=O)c1cnc(Cl)c(Br)c1)c1ccc(C(F)(F)F)cc1C(F)(F)F` [Example 1-18, 5-Bromo-6-chloro-pyridine-3-sulfonic acid 2,4-bis-trifluoromethyl-benzoylamide; sodium salt], the 50% inhibitory concentration (IC50) is 1 to 16 µM.
To `O=C(NS(=O)(=O)c1ccc(Oc2ccccc2)nc1)c1ccc(Cl)cc1F` [Example 1-20, 6-Phenoxy-pyridine-3-sulfonic acid 4-chloro-2-fluoro-benzoylamide; sodium salt] belongs 1 to 16 µM; to `O=C(NS(=O)(=O)c1ccc(Oc2ccccc2)nc1)c1ccc(F)cc1C(F)(F)F` [Example 1-21, 6-Phenoxy-pyridine-3-sulfonic acid 4-fluoro-2-trifluoromethyl-benzoylamide; sodium salt], 1 to 16 µM; to `O=C(NS(=O)(=O)c1cccnc1)c1ccc(Cl)cc1Cl` [Example 1-24, Pyridine-3-sulfonic acid 2,4-dichloro-benzoylamide; sodium salt], 3.17 µM.
Turning to `O=C(NS(=O)(=O)c1ccc(Oc2ccccc2)nc1)c1ccc(Br)cc1Cl` [Example 1-28, 6-Phenoxy-pyridine-3-sulfonic acid 4-bromo-2-chloro-benzoylamide; sodium salt], the concentration for half-maximal inhibition (IC50) lay in the range of 1 to 16 µM.
To `O=C(NS(=O)(=O)c1ccc(N2CCOCC2)nc1)c1ccc(Cl)cc1Br` [Example 1-29, 6-Morpholin-4-yl-pyridine-3-sulfonic acid 2-bromo-4-chloro-benzoylamide; sodium salt] belongs 1 to 16 µM.
Regarding `O=C(NS(=O)(=O)c1ccc(Oc2ccccc2)nc1)c1ccc(Cl)cc1Br` [Example 1-33, 6-Phenoxy-pyridine-3-sulfonic acid 2-bromo-4-chloro-benzoylamide; sodium salt], the IC50 lay in the range of 1 to 16 µM.
The figure for `O=C(NS(=O)(=O)c1cccnc1)c1ccc(C(F)(F)F)cc1C(F)(F)F` [Example 1-38, Pyridine-3-sulfonic acid 2,4-bis-trifluoromethyl-benzoylamide; sodium salt] is 1 to 16 µM.
In the case of `Cc1ccc(C(=O)NS(=O)(=O)c2ccc(Oc3ccccc3)nc2)c(Br)c1` [Example 1-40, 6-Phenoxy-pyridine-3-sulfonic acid 2-bromo-4-methyl-benzoylamide; sodium salt], the IC50 was 1 to 16 µM.
To `COc1cc(Cl)ccc1C(=O)NS(=O)(=O)c1ccc(N2CCC(OC)CC2)nc1` [Example 1-45, 4-Methoxy-3,4,5,6-tetrahydro-2H-[1,2′]bipyridinyl-5′-sulfonic acid 4-chloro-2-methoxy-benzoylamide; sodium salt] belongs 1 to 16 µM; to `COc1cc(Cl)ccc1C(=O)NS(=O)(=O)c1ccc(N2CCSCC2)nc1` [Example 1-47, 6-Thiomorpholin-4-yl-pyridine-3-sulfonic acid 4-chloro-2-methoxy-benzoylamide], 1 to 16 µM; to `O=C(NS(=O)(=O)c1ccc(N2CCCCCC2)nc1)c1ccc(Cl)cc1C(F)(F)F` [Example 1-49, 6-Azepan-1-yl-pyridine-3-sulfonic acid 4-chloro-2-trifluoromethyl-benzoylamide], 1 to 16 µM.
In the case of `CC1CCCN(c2ccc(S(=O)(=O)NC(=O)c3ccc(Cl)cc3C(F)(F)F)cn2)C1` (stereo not shown) [Example 1-51, 3-Methyl-3,4,5,6-tetrahydro-2H-[1,2′]bipyridinyl-5′-sulfonic acid 4-chloro-2-trifluoromethyl-benzoylamide; ammonium salt], the IC50 lay within 1 to 16 µM.
Compound `CCCN(CCC)c1ccc(S(=O)(=O)NC(=O)c2ccc(Cl)cc2C(F)(F)F)cn1` [Example 1-54, 6-Dipropylamino-pyridine-3-sulfonic acid 4-chloro-2-trifluoromethyl-benzoylamide] returned an IC50 of 1 to 16 µM.
The figure for `O=C(NS(=O)(=O)c1ccc(N2CCSCC2)nc1)c1ccc(Cl)cc1C(F)(F)F` [Example 1-56, 6-Thiomorpholin-4-yl-pyridine-3-sulfonic acid 4-chloro-2-trifluoromethyl-benzoylamide; ammonium salt] is 1 to 16 µM.
As to `CCCCN(CC)c1ccc(S(=O)(=O)NC(=O)c2ccc(Cl)cc2C(F)(F)F)cn1` [Example 1-59, 6-(Butyl-ethyl-amino)-pyridine-3-sulfonic acid 4-chloro-2-trifluoromethyl-benzoylamide; ammonium salt], the IC50 lay within 1 to 16 µM.
On to `CCCN(C)c1ccc(S(=O)(=O)NC(=O)c2ccc(F)cc2Cl)cn1` [Example 1-63, 6-(Methyl-propyl-amino)-pyridine-3-sulfonic acid 2-chloro-4-fluoro-benzoylamide], for which the 50% inhibitory concentration (IC50) was in the range of 1 to 16 µM.
To `O=C(NS(=O)(=O)c1ccc(N2CCSCC2)nc1)c1ccc(F)cc1Cl` [Example 1-68, 6-Thiomorpholin-4-yl-pyridine-3-sulfonic acid 2-chloro-4-fluoro-benzoylamide] belongs 1 to 16 µM; to `O=C(NS(=O)(=O)c1ccc(N2CCCCCC2)nc1)c1ccc(Cl)cc1Cl` [Example 1-69, 6-Azepan-1-yl-pyridine-3-sulfonic acid 2,4-dichloro-benzoylamide], 1 to 16 µM.
